According to ChEMBL document CHEMBL1649365, “Molecular modeling studies on imidazo[4,5-b]pyridine derivatives as Aurora A kinase inhibitors using 3D-QSAR and docking approaches” (Eur J Med Chem, 2011):

What follows are compounds tested against T1, Aurora kinase A (Homo sapiens, UniProt O14965) (assay: Inhibition of Aurora A).
T1 sequence (O14965 whole entry): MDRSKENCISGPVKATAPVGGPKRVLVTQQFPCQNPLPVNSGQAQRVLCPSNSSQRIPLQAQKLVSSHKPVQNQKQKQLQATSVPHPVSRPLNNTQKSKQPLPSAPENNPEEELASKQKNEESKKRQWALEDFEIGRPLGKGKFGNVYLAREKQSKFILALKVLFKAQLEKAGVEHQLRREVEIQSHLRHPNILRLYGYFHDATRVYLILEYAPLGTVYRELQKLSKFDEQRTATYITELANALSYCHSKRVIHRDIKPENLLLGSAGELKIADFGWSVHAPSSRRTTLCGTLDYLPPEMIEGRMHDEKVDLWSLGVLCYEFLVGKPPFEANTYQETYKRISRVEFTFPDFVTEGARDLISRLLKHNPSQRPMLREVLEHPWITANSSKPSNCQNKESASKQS
Work on `CC(c1ccncc1)N1CCN(c2c(Br)cnc3[nH]c(-c4ccc(N(C)C)cc4)nc23)CC1` (configuration not stated) yielded an IC50 of 55 nM.
`CN(C)c1ccc(-c2nc3c(N4CCN(CC(=O)Nc5ccccc5)CC4)c(Br)cnc3[nH]2)cc1` showed an IC50 of 277 nM.
For `Cc1cc(CN2CCN(c3c(Br)cnc4[nH]c(-c5ccc(Cn6cccn6)cc5)nc34)CC2)no1`, the IC50 was 10 nM.
For `COc1ccc(-c2nc3c(N4CCN(Cc5ccncc5)CC4)c(Br)cnc3[nH]2)cc1`, the IC50 was 9 nM.
`CC(=O)c1cccc(-c2ccc(-c3nc4ncc(Br)c(N5CCN(Cc6cc(C)on6)CC5)c4[nH]3)cc2)c1` showed an IC50 of 14 nM.
Work on `Cc1cc(CN2CCN(c3c(Br)cnc4[nH]c(-c5ccc(N6CCNCC6)cc5)nc34)CC2)no1` yielded an IC50 of 10 nM.
`Cc1cc(CN2CCN(c3c(Cl)cnc4nc(-c5ccc(N6CCN(C)CC6)cc5)[nH]c34)CC2)no1` gave an IC50 of 10 nM.
In the case of `COc1ccc(-c2nc3c(N4CCN(Cc5coc(C(C)C)n5)CC4)c(Br)cnc3[nH]2)cc1`, the IC50 is reported as 81 nM.
`c1ccc(-c2ccc(-c3nc4cccnc4[nH]3)cc2)nc1` was tested, and the IC50 was 4400 nM.
`O=C(CN1CCN(c2c(Br)cnc3[nH]cnc23)CC1)Nc1nccs1` was tested, and the IC50 was 81 nM.
For `Cc1cc(CN2CCN(c3c(Cl)cnc4nc(-c5ccc(Cn6cccn6)cc5)[nH]c34)CC2)no1`, the IC50 was 3 nM.
`Cc1cc(CN2CCN(c3c(Cl)cnc4nc(-c5ccc(OCCO)cc5)[nH]c34)CC2)no1` showed an IC50 of 29 nM.
